Like-named read-outs stand apart in the source and are kept apart here.
Assays:
HXB2 HIV-1 strain = assay: Multiple-round infection assay in MT4 cells, HXB2; assay type: cell-based; settings: Human immunodeficiency virus 1, HXB2; multiple-round infection, MT4 cells; mean ± SD, n > 5; read-out: EC50 HXB2
Method in brief: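 MT4 cells at 10^6/mL were infected with HIV-1 at MOI 0.001 for 2 h in the presence of compound dilutions. Cell viability, measured by CellTiter-Glo luminescence, served as the read-out of protection in this multiple-round infection.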

[1] = tested on: NL4-3 HIV-1 with INLAI-selected IN single point mutations; assay type: cell-based
[2] = tested on: lab-adapted and clinical HIV-1 isolates; assay: Infection assays in primary T CD4+ lymphocytes; assay type: cell-based; settings: Human immunodeficiency virus 1, Lymphocyte
NL4-3 HIV-1 strain = assay: Multiple-round infection assay in MT4 cells, NL4-3; assay type: cell-based; settings: MT4 cells
[3] = molecular target: CCD of HIV-1 IN and IBD of LEDGF/p75 (Human immunodeficiency virus type 1 group M subtype B, UniProt P12497); assay: biochemical
[4] = molecular target: HIV-1 IN-LEDGF/p75 interaction (Human immunodeficiency virus type 1 group M subtype B, UniProt P12497); assay: biochemical
[5] = Cytotoxicity assay in MT4 cells; assay type: cell-based; settings: human, MT4 cells (proliferating human T-cell line), CellTiter-Glo
Text: Growth inhibition was monitored in a proliferating human T-cell line (MT4) with different concentrations of compounds, using the CellTiter-Glo luminescent reagent (Promega), as previously described ([12]).

[6] = tested on: recombinant NL4-3 viruses with polymorphisms at IN positions 124 and 125; assay: Multiple-round infection of MT4 cells with recombinant NL4-3 viruses polymorphic at IN positions 124 and 125; assay type: cell-based, HIV-1
Method in brief: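 MT4 cells (10^6/mL) infected with NL4-3 carrying IN 124/125 polymorphisms (15 combinations) at MOI 0.001 for 2 h with compound present. Viability read by CellTiter-Glo luminescence; EC50 expressed as fold change versus wild-type NL4-3 (Thr124/Thr125).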

[7] = tested on: HIV-1 strains resistant to INSTIs, NRTIs, NNRTIs or PIs; assay type: cell-based; settings: PI-resistant virus
Method in brief: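 NL4-3-based recombinant mutants and drug-resistant clinical isolates; exponentially growing MT4 cells (10^6/mL) infected at MOI 0.001 for 2 h with compound at varying concentrations. Protection quantified as cell viability by CellTiter-Glo luminescence.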

[8] = tested on: VSV-G-pseudotyped NL4-3Δenv-luc; assay: microbe, parasite or virus in culture; assay type: cell-based, HIV-1; settings: Human immunodeficiency virus 1, NL43, MT4, read-out: EC50 in single-round infection
[9] = tested on: primary HIV-1 isolates with polymorphisms at IN positions 124 and 125; assay: Multiple-round infection of MT4 cells with primary HIV-1 isolates polymorphic at IN positions 124 and 125; assay type: cell-based; settings: primary isolate
Method in brief: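 Exponentially growing MT4 cells at 10^6/mL infected for 2 h at MOI 0.001 in the presence of varying compound concentrations. Cell viability quantified by CellTiter-Glo luminescence.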

HIV-1 IN = molecular target: T1, HIV-1 IN (Human immunodeficiency virus type 1 group M subtype B, UniProt P12497); assay: HTRF IN multimerization assay; assay type: biochemical; settings: mean ± SD
T1 construct: made in house
Text: A key property of INLAIs is the ability to promote HIV-1 IN homo-multimerization ([39][–][42]). […] The maximal signal (plateau) in our IN aggregation assay corresponds to the highest HTRF signal increase under saturating INLAI concentration, relative to baseline level. Thus, MUT916, MUT884, MUT871, and MUT872 increased HIV-1 IN aggregation 3.7 to 4.4-fold, while BDM-2, BI-224436, and S-I-82 did so 5 to 6-fold (Table 1).

## Cc1cc(NS(=O)(=O)CC2CCCCC2)c(C)c(C(OC(C)(C)C)C(=O)O)c1-c1ccc2c(c1)CCCO2 (stereo not shown) [S-I-82, reference compound]
HXB2 HIV-1 strain
  EC50: 4.1 ± 0.7 nM
[1]
  EC50 fold change compared to wild type NL4-3, A128T: 4
  EC50 fold change compared to wild type NL4-3, H171Q: 2
  EC50 fold change compared to wild type NL4-3, N222K: 1
  EC50 fold change compared to wild type NL4-3, T174I: 15
  EC50 fold change compared to wild type NL4-3, Y99H: 2
[2]; read-out: EC50 33913N (B)
  EC50: 4.4 ± 1.9 nM
[2]; read-out: EC50 HXB2 (B)
  EC50: 5.2 ± 3.9 nM
[2]; read-out: EC50 KER2008 (A)
  EC50: 11 ± 2 nM
[2]; read-out: EC50 NL4-3 (B)
  EC50: 9.9 ± 1.1 nM
[2]; read-out: EC50 NP1525 (CRF01_AE)
  EC50: 10 ± 4 nM
[2]; read-out: EC50 NP1538 (B)
  EC50: 8.6 ± 0.5 nM
NL4-3 HIV-1 strain; Human immunodeficiency virus 1, NL43, multiple-round infection, from dose response curves, read-out: EC90 NL4-3
  EC90: 21 ± 7.2 nM
NL4-3 HIV-1 strain; Human immunodeficiency virus 1, NL43, multiple-round infection, mean ± SD, n > 5, read-out: EC50 NL4-3
  EC50: 12 ± 3 nM
NL4-3 HIV-1 strain
  Selectivity index CC50/EC50 NL4-3: 2,333
[3]
  IC50: 430 ± 130 nM
[4]
  IC50: 820 ± 380 nM
[5]
  CC50: 28000 ± 3000 nM
[6]; recombinant NL4-3, IN 124/125 AA
  Fold change in EC50 relative to parental NL4-3, AA: 1
[6]; recombinant NL4-3, IN 124/125 AM
  Fold change in EC50 relative to parental NL4-3, AM: 1
[6]; recombinant NL4-3, IN 124/125 AT
  Fold change in EC50 relative to parental NL4-3, AT: 1
[6]; recombinant NL4-3, IN 124/125 AV
  Fold change in EC50 relative to parental NL4-3, AV: 2
[6]; recombinant NL4-3, IN 124/125 GA
  Fold change in EC50 relative to parental NL4-3, GA: 3
[6]; recombinant NL4-3, IN 124/125 GT
  Fold change in EC50 relative to parental NL4-3, GT: 3
[6]; recombinant NL4-3, IN 124/125 NA
  Fold change in EC50 relative to parental NL4-3, NA: 10
[6]; recombinant NL4-3, IN 124/125 NT
  Fold change in EC50 relative to parental NL4-3, NT: 5
[6]; recombinant NL4-3, IN 124/125 NV
  Fold change in EC50 relative to parental NL4-3, NV: 5
[6]; recombinant NL4-3, IN 124/125 SA
  Fold change in EC50 relative to parental NL4-3, SA: 4
[6]; recombinant NL4-3, IN 124/125 ST
  Fold change in EC50 relative to parental NL4-3, ST: 2
[6]; recombinant NL4-3, IN 124/125 TA
  Fold change in EC50 relative to parental NL4-3, TA: 2
[6]; recombinant NL4-3, IN 124/125 TM
  Fold change in EC50 relative to parental NL4-3, TM: 1
[6]; recombinant NL4-3, IN 124/125 TV
  Fold change in EC50 relative to parental NL4-3, TV: 1
[7]
  Fold change in EC50 relative to NL4-3, ARP-4595: 1
  Fold change in EC50 relative to NL4-3, ARP-4596: 0.5
  Fold change in EC50 relative to NL4-3, ARP-11801: 1
  Fold change in EC50 relative to NL4-3, ARP-11803: 1
  Fold change in EC50 relative to NL4-3, ARP-11807: 1
  Fold change in EC50 relative to NL4-3, ARP-11808: 1
[8]
  EC50: 9200 ± 1100 nM
[9]; IN 124/125 AA
  Fold change in EC50 relative to parental NL4-3, CAM2BBY (CRF02): 2
  Fold change in EC50 relative to parental NL4-3, E0836M4 (D): 1
  Fold change in EC50 relative to parental NL4-3, KER2008 (A): 1
  Fold change in EC50 relative to parental NL4-3, NP1525 (CRF01): 2
  Fold change in EC50 relative to parental NL4-3, NP1695 (CRF02): 1
  Fold change in EC50 relative to parental NL4-3, TZA125 (C): 1
[9]; IN 124/125 GA
  Fold change in EC50 relative to parental NL4-3, KSM4030 (A): 6
  Fold change in EC50 relative to parental NL4-3, vGA (C): 4
[9]; IN 124/125 NA
  Fold change in EC50 relative to parental NL4-3, 99ET14 (C): 210
  Fold change in EC50 relative to parental NL4-3, NP1538 (B): 1
  Fold change in EC50 relative to parental NL4-3, vNA_1 (B): 23
  Fold change in EC50 relative to parental NL4-3, vNA_2 (CRF02): 23
[9]; IN 124/125 NV
  Fold change in EC50 relative to parental NL4-3, vNV (B): 34
[9]; IN 124/125 SA
  Fold change in EC50 relative to parental NL4-3, vSA_1 (B): 12
  Fold change in EC50 relative to parental NL4-3, vSA_2 (CRF02): 4
[9]; IN 124/125 TA
  Fold change in EC50 relative to parental NL4-3, vTA_1 (B): 3
  Fold change in EC50 relative to parental NL4-3, vTA_2 (CRF02): 3
HIV-1 IN; concentration for 50% maximum activation of multimerization
  AC50: 47 ± 31 nM
HIV-1 IN; maximum multimerization reached versus baseline
  IN multimerization Plateau: 500 ± 43%

Reference: article PMC10353390, “Biological and Structural Analyses of New Potent Allosteric Inhibitors of HIV-1 Integrase” (Antimicrobial Agents and Chemotherapy, 2023)
